Values of other authors in US6376550B1, “Pharmaceutical compositions containing tramadol for migraine” (ASTA Medica AG, priority 1999, dated 2002).

Conditions: in vivo

In the case of COc1cccc(C2(O)CCCCC2CN(C)C)c1 (stereo not shown) [tramadol, 2-[(dimethylamino)methyl]-1-(3-methoxyphenyl)cyclohexanol], the “terminal elimination half life” value is listed as 5 to 6 h.
